Measured values from patent US20230265151A1, “GIP/GLP1 CO-AGONIST COMPOUNDS” (priority 2020, published 2023).
Read-outs that look alike come from different tables or passages of the source.

Assays:
hGCGR = target: T1, hGCGR (Homo sapiens, UniProt P47871); test: Functional cAMP formation (HTRF) in HEK-293 clonal cells expressing hGCGR, 0.1% bovine casein, without or with 1.0% human serum albumin; format: cell-based
T1 construct: expressed in transfected cells
In short: (§1)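 Cells were stimulated with peptide for 30 min at 37° C, then lysed in buffer carrying cAMP-d2 and anti-cAMP Eu3+-cryptate for a competitive HTRF read after at least 60 min at room temperature. The 665/620 nm ratio was converted to nM cAMP against a standard curve.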

hGLP-1R = hGLP-1R (Homo sapiens, UniProt P43220); test: Functional cAMP formation (HTRF) in HEK-293 clonal cells expressing hGLP-1R, 0.1% bovine casein, without or with 1.0% human serum albumin; format: cell-based; parameters: expressed in transfected cells; conditions: for EC50: cAMP, 0.1% bovine casein (no human serum albumin), geometric mean
Sequence of hGLP-1R (P43220 24-463): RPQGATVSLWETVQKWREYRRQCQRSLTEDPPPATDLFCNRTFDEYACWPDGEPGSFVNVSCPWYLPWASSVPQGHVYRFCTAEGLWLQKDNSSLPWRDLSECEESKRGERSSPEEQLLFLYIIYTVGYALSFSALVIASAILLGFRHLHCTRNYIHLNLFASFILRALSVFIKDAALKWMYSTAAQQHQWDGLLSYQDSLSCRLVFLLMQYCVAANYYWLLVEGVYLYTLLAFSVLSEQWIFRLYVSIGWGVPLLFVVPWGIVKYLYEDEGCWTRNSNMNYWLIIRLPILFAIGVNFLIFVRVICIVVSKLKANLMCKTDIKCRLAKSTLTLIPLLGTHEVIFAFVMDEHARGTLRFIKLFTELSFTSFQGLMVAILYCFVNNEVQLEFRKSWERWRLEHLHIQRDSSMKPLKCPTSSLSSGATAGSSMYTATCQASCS
In short: as §1

[1] = target: T2, human GLP-1 receptor (hGLP-1R) (Homo sapiens, UniProt P43220); test: [125I]-GLP-1 binding, SPA with membranes of HEK293 cells expressing hGLP-1R
T2 construct: expressed in transfected cells; crude membranes
T2 sequence (P43220 24-463): as above

[2] = target: T3, human GIP receptor (hGIPR) (Homo sapiens, UniProt P48546); test: [125I]-GIP binding, SPA with membranes of CHO cells expressing hGIPR
T3 construct: expressed in transfected cells; crude membranes
T3 sequence (P48546 22-466): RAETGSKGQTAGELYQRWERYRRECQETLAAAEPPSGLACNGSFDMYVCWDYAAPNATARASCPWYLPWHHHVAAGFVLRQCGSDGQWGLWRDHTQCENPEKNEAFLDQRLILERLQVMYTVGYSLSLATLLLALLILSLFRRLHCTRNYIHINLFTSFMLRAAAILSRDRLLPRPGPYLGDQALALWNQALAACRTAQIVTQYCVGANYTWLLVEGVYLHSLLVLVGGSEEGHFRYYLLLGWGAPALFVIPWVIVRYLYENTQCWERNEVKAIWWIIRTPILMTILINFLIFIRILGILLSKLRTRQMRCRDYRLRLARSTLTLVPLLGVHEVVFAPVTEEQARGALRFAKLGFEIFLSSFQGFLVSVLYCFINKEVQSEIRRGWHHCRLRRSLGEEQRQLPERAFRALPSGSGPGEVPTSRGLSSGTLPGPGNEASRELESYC

hGIPR = target: T4, hGIPR (Homo sapiens, UniProt P48546); test: Functional cAMP formation (HTRF) in HEK-293 clonal cells expressing hGIPR, 0.1% bovine casein, without or with 1.0% human serum albumin; format: cell-based; conditions: for EC50: cAMP
T4 construct: expressed in transfected cells
T4 sequence (P48546 22-466): T3 sequence (P48546 22-466)
In short: as §1

[3] = 0.1% bovine casein and 1.0% human serum albumin, 37° C., geometric mean, read-out: hGCGR EC50, nM (SEM, n)
[4] = cAMP, incubated at 37° C., 0.1% bovine casein (no human serum albumin), geometric mean, read-out: hGCGR EC50, nM (SEM, n)
[5] = HEK293, 0.1% bovine casein and 1.0% human serum albumin, 37° C., percent of maximal response to GLP-1(7-36)NH2, read-out: hGLP-1R Emax, % ± SEM
[6] = HEK293, percent of maximal response to GLP-1(7-36)NH2, 37° C., 0.1% bovine casein, arithmetic mean, read-out: hGLP-1R Emax, % ± SEM
[7] = incubated at 37° C., read-out: hGLP-1R EC50, nM (SEM, n)
[8] = human GLP-1R, geometric mean (SEM, n), read-out: Binding Affinity Ki, nM (SEM, n) hGLP-1R
[9] = human GIPR, geometric mean (SEM, n), read-out: Binding Affinity Ki, nM (SEM, n) hGIPR
[10] = HEK293, 0.1% bovine casein and 1.0% human serum albumin, 37° C., percent of maximal response to GIP(1-42)NH2, read-out: hGIPR Emax, % ± SEM
[11] = HEK293, percent of maximal response to GIP(1-42)NH2, 37° C., 0.1% bovine casein, arithmetic mean, read-out: hGIPR Emax, % ± SEM

T1 sequence (P47871 26-477): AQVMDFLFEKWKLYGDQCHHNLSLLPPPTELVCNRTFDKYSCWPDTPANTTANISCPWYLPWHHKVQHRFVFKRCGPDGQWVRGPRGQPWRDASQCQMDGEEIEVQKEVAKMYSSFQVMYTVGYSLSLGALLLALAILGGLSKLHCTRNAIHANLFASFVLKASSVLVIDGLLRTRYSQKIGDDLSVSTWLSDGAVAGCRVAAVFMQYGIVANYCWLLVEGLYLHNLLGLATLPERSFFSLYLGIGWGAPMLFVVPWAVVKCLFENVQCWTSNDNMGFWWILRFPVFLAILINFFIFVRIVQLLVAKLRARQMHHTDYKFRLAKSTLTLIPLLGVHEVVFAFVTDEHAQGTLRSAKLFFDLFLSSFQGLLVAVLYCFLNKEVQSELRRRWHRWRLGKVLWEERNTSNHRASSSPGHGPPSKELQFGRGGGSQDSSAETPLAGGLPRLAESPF

**Q.** Which EC50 (hGCGR; [3]) does the source give for `CC[C@H](C)[C@H](NC(=O)[C@H](CC(C)C)NC(=O)[C@](C)(Cc1ccc(O)cc1)NC(=O)[C@@H](CCC(=O)O)NC(=O)[C@@H](NC(=O)[C@H](Cc1ccccc1)NC(=O)[C@H](CCC(=O)O)NC(=O)C(C)(C)NC(=O)[C@H](CCC(N)=O)NC(=O)[C@H](C)NC(=O)[C@H](CCCCNC(=O)COCCOCCNC(=O)COCCOCCNC(=O)CC[C@H](NC(=O)CCCCCCCCCCCCC(=O)O)C(=O)O)NC(=O)[C@H](CCCN)NC(=O)[C@H](CC(=O)O)NC(=O)[C@H](CC(C)C)NC(=O)[C@](C)(CC(C)C)NC(=O)[C@@H](NC(=O)C(C)(C)NC(=O)[C@@H](NC(=O)[C@H](CC(=O)O)NC(=O)[C@H](CO)NC(=O)[C@@H](NC(=O)[C@](C)(Cc1ccccc1F)NC(=O)[C@@H](NC(=O)CNC(=O)[C@H](CCC(=O)O)NC(=O)C(C)(C)NC(=O)[C@@H](N)Cc1ccc(O)cc1)[C@@H](C)O)[C@@H](C)O)C(C)C)[C@@H](C)CC)[C@@H](C)CC)C(=O)N[C@@H](CCC(=O)O)C(=O)NCC(=O)NCC(=O)N[C@@H](CCCCNC(=O)COCCOCCNC(=O)COCCOCCNC(=O)CC[C@H](NC(=O)CCCCCCCCCCCCC(=O)O)C(=O)O)C(=O)N[C@@H](CO)C(=O)N[C@@H](CO)C(=O)NCC(=O)N[C@@H](C)C(=O)N1CCC[C@H]1C(=O)N1CCC[C@H]1C(=O)N1CCC[C@H]1C(=O)N[C@@H](CO)C(N)=O` [Example 91] here?
**A.** > 9950 nM

**Q.** And the EC50 (hGCGR; [4])?
**A.** > 9950 nM

**Q.** What about the Emax (hGLP-1R; [5]) of the same molecule?
**A.** 89.8%

**Q.** And the Emax (hGLP-1R; [6])?
**A.** 94 ± 5.44%

**Q.** And the EC50 (hGLP-1R; [7])?
**A.** 0.153 nM

**Q.** And the Ki [1, 8]?
**A.** 1.26 nM

**Q.** What about the Ki [2, 9] of the same molecule?
**A.** 0.126 nM

**Q.** And the Emax (hGIPR; [10])?
**A.** 91.9%

**Q.** What about the Emax (hGIPR; [11]) of the same molecule?
**A.** 92.8 ± 4.69%

**Q.** `CC[C@H](C)[C@H](NC(=O)[C@H](CC(C)C)NC(=O)[C@](C)(Cc1ccc(O)cc1)NC(=O)[C@@H](CCC(=O)O)NC(=O)[C@@H](NC(=O)[C@H](Cc1ccccc1)NC(=O)[C@H](CCC(=O)O)NC(=O)C(C)(C)NC(=O)[C@H](CCC(N)=O)NC(=O)[C@H](C)NC(=O)[C@H](CCCCNC(=O)COCCOCCNC(=O)COCCOCCNC(=O)CC[C@H](NC(=O)CCCCCCCCCCCCC(=O)O)C(=O)O)NC(=O)[C@H](CCCN)NC(=O)[C@H](CC(=O)O)NC(=O)[C@H](CC(C)C)NC(=O)[C@](C)(CC(C)C)NC(=O)[C@@H](NC(=O)[C@](C)(CO)NC(=O)[C@@H](NC(=O)[C@H](CC(=O)O)NC(=O)[C@H](CO)NC(=O)[C@@H](NC(=O)[C@](C)(Cc1ccccc1F)NC(=O)[C@@H](NC(=O)CNC(=O)[C@H](CCC(=O)O)NC(=O)C(C)(C)NC(=O)[C@@H](N)Cc1ccc(O)cc1)[C@@H](C)O)[C@@H](C)O)C(C)C)[C@@H](C)CC)[C@@H](C)CC)C(=O)N[C@@H](CCC(=O)O)C(=O)NCC(=O)NCC(=O)N[C@@H](CCCCNC(=O)COCCOCCNC(=O)COCCOCCNC(=O)CC[C@H](NC(=O)CCCCCCCCCCCCC(=O)O)C(=O)O)C(=O)N[C@@H](CO)C(=O)N[C@@H](CO)C(=O)NCC(=O)N[C@@H](C)C(=O)N1CCC[C@H]1C(=O)N1CCC[C@H]1C(=O)N1CCC[C@H]1C(=O)N[C@@H](CO)C(N)=O` [Example 212] was tested. Which EC50 (hGCGR; [3]) did it give?
**A.** > 9950 nM

**Q.** And the EC50 (hGCGR; [4])?
**A.** > 9950 nM

**Q.** What about the Emax (hGLP-1R; [5]) of the same molecule?
**A.** 91%

**Q.** And the Emax (hGLP-1R; [6])?
**A.** 94.7%

**Q.** And the EC50 (hGLP-1R; [7])?
**A.** 0.265 nM

**Q.** And the Ki [1, 8]?
**A.** 1.17 nM

**Q.** And the Ki [2, 9]?
**A.** 0.161 nM

**Q.** What about the Emax (hGIPR; [10]) of the same molecule?
**A.** 81%

**Q.** And the Emax (hGIPR; [11])?
**A.** 100%

**Q.** What about the EC50 (hGIPR; incubated at 37° C., 0.1% bovine casein (no human serum albumin), geometric mean, read-out: hGIPR EC50, nM (SEM, n)) of the same molecule?
**A.** 0.0385 nM

**Q.** `CC[C@H](C)[C@H](NC(=O)[C@H](CC(C)C)NC(=O)[C@](C)(Cc1ccc(O)cc1)NC(=O)[C@H](CCCCNC(=O)CC[C@H](NC(=O)COCCOCCNC(=O)COCCOCCNC(=O)CC[C@H](NC(=O)CCCCCCCCCOc1ccc(C(=O)O)cc1)C(=O)O)C(=O)O)NC(=O)[C@@H](NC(=O)[C@H](Cc1ccccc1)NC(=O)[C@H](CCCN)NC(=O)C(C)(C)NC(=O)[C@H](CCC(N)=O)NC(=O)[C@H](C)NC(=O)[C@H](CCC(N)=O)NC(=O)[C@H](CCCN)NC(=O)[C@H](CC(=O)O)NC(=O)[C@H](CC(C)C)NC(=O)[C@](C)(CC(C)C)NC(=O)[C@@H](NC(=O)C(C)(C)NC(=O)[C@H](Cc1ccncc1)NC(=O)[C@H](CC(=O)O)NC(=O)[C@H](CO)NC(=O)[C@@H](NC(=O)[C@](C)(Cc1ccccc1F)NC(=O)[C@@H](NC(=O)CNC(=O)[C@H](CCC(=O)O)NC(=O)C(C)(C)NC(=O)[C@@H](N)Cc1ccc(O)cc1)[C@@H](C)O)[C@@H](C)O)[C@@H](C)CC)[C@@H](C)CC)C(=O)N[C@@H](CCCCNC(=O)CC[C@H](NC(=O)COCCOCCNC(=O)COCCOCCNC(=O)CC[C@H](NC(=O)CCCCCCCCCOc1ccc(C(=O)O)cc1)C(=O)O)C(=O)O)C(=O)NCC(=O)NCC(=O)N1CCC[C@H]1C(=O)N[C@@H](CO)C(=O)N[C@@H](CO)C(=O)NCC(=O)N[C@@H](C)C(=O)N1CCC[C@H]1C(=O)N1CCC[C@H]1C(=O)N1CCC[C@H]1C(=O)N[C@@H](CO)C(N)=O` [Example 483] was tested. Which EC50 (hGCGR; hGCGR EC50, nM (SEM, n), cAMP, 37° C., 0.1% bovine casein (no human serum albumin), geometric mean) did it give?
**A.** > 9950 nM

**Q.** And the EC50 (hGCGR; hGCGR EC50, nM (SEM, n), cAMP, 37° C., 0.1% bovine casein and 1.0% human serum albumin, geometric mean (SEM, n))?
**A.** > 9950 nM

**Q.** And the Emax (hGLP-1R; HEK293, read-out: hGLP-1R Emax, % ± SEM, cAMP, 37° C., 0.1% bovine casein and 1.0% human serum albumin, percent of maximal response to GLP-1(7-36)NH2)?
**A.** 113%

**Q.** What about the Emax (hGLP-1R; HEK293, read-out: hGLP-1R Emax, % ± SEM, cAMP, 37° C., 0.1% bovine casein, percent of maximal response to GLP-1(7-36)NH2, arithmetic mean) of the same molecule?
**A.** 118%

**Q.** And the EC50 (hGLP-1R; hGLP-1R EC50, nM (SEM, n), 37° C.)?
**A.** 0.169 nM

**Q.** What about the Ki [1] of the same molecule?
**A.** 0.263 nM

**Q.** And the Ki [2]?
**A.** 0.0236 nM

**Q.** What about the Emax (hGIPR; HEK293, read-out: hGIPR Emax, % ± SEM, cAMP, 37° C., 0.1% bovine casein and 1.0% human serum albumin, percent of maximal response to GIP(1-42)NH2) of the same molecule?
**A.** 92.6%

**Q.** And the Emax (hGIPR; HEK293, read-out: hGIPR Emax, % ± SEM, cAMP, 37° C., 0.1% bovine casein, percent of maximal response to GIP(1-42)NH2, arithmetic mean)?
**A.** 97.4%

**Q.** And the EC50 (hGIPR; hGIPR EC50, nM (SEM, n), 37° C., 0.1% bovine casein (no human serum albumin), geometric mean)?
**A.** 0.0138 nM

**Q.** What about the EC50 (hGIPR; hGIPR EC50, nM (SEM, n), 37° C., 0.1% bovine casein and 1.0% human serum albumin, geometric mean (SEM, n)) of the same molecule?
**A.** 0.297 nM
